Test results published in patent publication US9115101B2 (Genentech, Inc., priority 2012, dated 2015).

Biological target: T1, RORc ligand binding domain (Homo sapiens, UniProt P51449)
T1 construct: host or cells: E. coli
T1 sequence (P51449 269-508 limits assumed): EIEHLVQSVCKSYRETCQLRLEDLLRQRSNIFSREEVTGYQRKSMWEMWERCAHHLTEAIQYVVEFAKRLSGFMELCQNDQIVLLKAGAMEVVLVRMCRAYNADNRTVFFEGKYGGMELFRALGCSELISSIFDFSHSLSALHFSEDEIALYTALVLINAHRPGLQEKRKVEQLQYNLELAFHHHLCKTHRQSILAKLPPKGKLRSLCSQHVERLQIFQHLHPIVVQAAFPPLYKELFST
Experiment: In Vitro RORc Ligand Binding Assay (25-[3H]hydroxycholesterol radioligand filtration)
Settings: In Vitro RORc Ligand Binding Assay; Table 4; read-out: RORc IC50

Row | Compound | IC50 [nM]
1 | N#CCC(=O)N1CCN(c2ccc(CN3CCCCC(c4ccccc4)S3(=O)=O)c(F)c2)CC1 (single isomer, unassigned) [Example 302, 3-{4-[4-(1,1-Dioxo-7-phenyl-[1,2]thiazepan-2-ylmethyl)-3-fluoro-phenyl]-piperazin-1-yl}-3-oxo-propionitrile] | 24
2 | N#CCC(=O)N1CCN(c2ccc(CN3CCCCC(c4ccccc4)S3(=O)=O)c(F)c2)CC1 (single isomer, unassigned) [Example 303, 3-{4-[4-(1,1-Dioxo-7-phenyl-[1,2]thiazepan-2-ylmethyl)-3-fluoro-phenyl]-piperazin-1-yl}-3-oxo-propionitrile] | 86
3 | C[C@H](O)C(=O)N1CCN(c2ccc(CN3CCCCC(c4ccccc4)S3(=O)=O)c(F)c2)CC1 (single isomer, unassigned) [Example 304, 1-{4-[4-(1,1-Dioxo-7-phenyl-[1,2]thiazepan-2-ylmethyl)-3-fluoro-phenyl]-piperazin-1-yl}-2-hydroxy-propan-1-one] | 38
4 | C[C@H](O)C(=O)N1CCN(c2ccc(CN3CCCCC(c4ccccc4)S3(=O)=O)c(F)c2)CC1 (single isomer, unassigned) [Example 305, 1-{4-[4-(1,1-Dioxo-7-phenyl-[1,2]thiazepan-2-ylmethyl)-3-fluoro-phenyl]-piperazin-1-yl}-2-hydroxy-propan-1-one] | 165
5 | CC(=O)N1CCN(c2ccc(CN3CCCCC(c4ccccc4)S3(=O)=O)cc2)CC1 (single isomer, unassigned) [Example 306, 1-{4-[4-(1,1-Dioxo-7-phenyl-[1,2]thiazepan-2-ylmethyl)-phenyl]-piperazin-1-yl}-ethanone] | 87
6 | CC(=O)N1CCN(c2ccc(CN3CCCCC(c4ccccc4)S3(=O)=O)cc2)CC1 (single isomer, unassigned) [Example 307, 1-{4-[4-(1,1-Dioxo-7-phenyl-[1,2]thiazepan-2-ylmethyl)-phenyl]-piperazin-1-yl}-ethanone] | 227
7 | O=C(CO)N1CCN(c2ccc(CN3CCCCC(c4ccccc4)S3(=O)=O)c(F)c2)CC1 (single isomer, unassigned) [Example 308, 1-{4-[4-(1,1-Dioxo-7-phenyl-[1,2]thiazepan-2-ylmethyl)-3-fluoro-phenyl]-piperazin-1-yl}-2-hydroxy-ethanone] | 29
8 | C[C@H](O)C(=O)N1CCN(c2ccc(CN3CCCCC(c4ccccc4)S3(=O)=O)cc2)CC1 (single isomer, unassigned) [Example 309, 1-{4-[4-(1,1-Dioxo-7-phenyl-[1,2]thiazepan-2-ylmethyl)-phenyl]-piperazin-1-yl}-2-hydroxy-propan-1-one] | 106
9 | N#CCC(=O)N1CCN(c2ccc(CN3CCCCC(c4ccccc4)S3(=O)=O)cc2)CC1 (single isomer, unassigned) [Example 310, 3-{4-[4-(1,1-Dioxo-7-phenyl-[1,2]thiazepan-2-ylmethyl)-phenyl]-piperazin-1-yl}-3-oxo-propionitrile] | 45
10 | C[C@H](O)C(=O)N1CCN(c2ccc(CN3CCCCC(c4ccccc4)S3(=O)=O)cc2)CC1 (single isomer, unassigned) [Example 311, 1-{4-[4-(1,1-Dioxo-7-phenyl-[1,2]thiazepan-2-ylmethyl)-phenyl]-piperazin-1-yl}-2-hydroxy-propan-1-one] | 898
11 | N#CCC(=O)N1CCN(c2ccc(CN3CCCCC(c4ccccc4)S3(=O)=O)cc2)CC1 (single isomer, unassigned) [Example 312, 3-{4-[4-(1,1-Dioxo-7-phenyl-[1,2]thiazepan-2-ylmethyl)-phenyl]-piperazin-1-yl}-3-oxo-propionitrile] | 926
12 | O=C(CO)N1CCN(c2ccc(CN3CCCCC(c4ccccc4)S3(=O)=O)c(F)c2)CC1 (single isomer, unassigned) [Example 313, 1-{4-[4-(1,1-Dioxo-7-phenyl-[1,2]thiazepan-2-ylmethyl)-3-fluoro-phenyl]-piperazin-1-yl}-2-hydroxy-ethanone] | 592
13 | C[C@@H](O)C(=O)N1CCN(c2ccc(CN3CCCCC(c4ccccc4)S3(=O)=O)c(F)c2)CC1 (single isomer, unassigned) [Example 314, 1-{4-[4-(1,1-Dioxo-7-phenyl-[1,2]thiazepan-2-ylmethyl)-3-fluoro-phenyl]-piperazin-1-yl}-2-hydroxy-propan-1-one] | 237
14 | C[C@@H](O)C(=O)N1CCN(c2ccc(CN3CCCCC(c4ccccc4)S3(=O)=O)cc2)CC1 (single isomer, unassigned) [Example 315, 1-{4-[4-(1,1-Dioxo-7-phenyl-[1,2]thiazepan-2-ylmethyl)-phenyl]-piperazin-1-yl}-2-hydroxy-propan-1-one] | 321
15 | O=C(CO)N1CCN(c2ccc(CN3CCCCC(c4ccccc4)S3(=O)=O)cc2)CC1 (single isomer, unassigned) [Example 316, 1-{4-[4-(1,1-Dioxo-7-phenyl-[1,2]thiazepan-2-ylmethyl)-phenyl]-piperazin-1-yl}-2-hydroxy-ethanone] | 173
16 | C[C@@H](O)C(=O)N1CCN(c2ccc(CN3CCCCC(c4ccccc4)S3(=O)=O)cc2)CC1 (single isomer, unassigned) [Example 317, 1-{4-[4-(1,1-Dioxo-7-phenyl-[1,2]thiazepan-2-ylmethyl)-phenyl]-piperazin-1-yl}-2-hydroxy-propan-1-one] | 3400

Row | Compound | IC50 [nM]
17 | O=C(CO)N1CCN(c2ccc(CN3CCCCC(c4ccccc4)S3(=O)=O)cc2)CC1 (single isomer, unassigned) [Example 318, 1-{4-[4-(1,1-Dioxo-7-phenyl-[1,2]thiazepan-2-ylmethyl)-phenyl]-piperazin-1-yl}-2-hydroxy-ethanone] | 1970
18 | CC(=O)N1CCN(c2ccc(CN3[C@H](C)CCCC(c4ccccc4)S3(=O)=O)c(F)c2)CC1 (single isomer, unassigned) [Example 319] | 8
19 | CC(=O)N1CCN(c2ccc(CN3[C@@H](C)CCCC(c4ccccc4)S3(=O)=O)c(F)c2)CC1 (single isomer, unassigned) [Example 320] | 1920
20 | CC(=O)N1CCN(c2ccc(CN3[C@H](C)CCCC(c4ccccc4)S3(=O)=O)c(F)c2)CC1 (single isomer, unassigned) [Example 321] | 16
21 | CC(=O)N1CCN(c2ccc(CN3[C@@H](C)CCCC(c4ccccc4)S3(=O)=O)c(F)c2)CC1 (single isomer, unassigned) [Example 322] | 26
22 | O=S1(=O)C(c2ccccc2)CCCCN1Cc1ccc(N2CCC(n3cnnc3)CC2)cc1F (single isomer, unassigned) [Example 323, 2-[2-Fluoro-4-(4-[1,2,4]triazol-4-yl-piperidin-1-yl)-benzyl]-7-phenyl-[1,2]thiazepane 1,1-dioxide] | 2
23 | CS(=O)(=O)N1CCC(Nc2ccc(CN3CCCCC(c4ccccc4)S3(=O)=O)cc2)CC1 (single isomer, unassigned) [Example 324, [4-(1,1,-Dioxo-7-phenyl-[1,2]thiazepan-2-ylmethyl)-phenyl]-(1-methanesulfonyl-piperidin-4-yl)-amine] | 3
24 | O=S1(=O)C(c2ccccc2)CCCCN1Cc1ccc(N2CCC(n3cnnc3)CC2)cc1F (single isomer, unassigned) [Example 325, 2-[2-Fluoro-4-(4-[1,2,4]triazol-4-yl-piperidin-1-yl)-benzyl]-7-phenyl-[1,2]thiazepane 1,1-dioxide] | 10
25 | CS(=O)(=O)N1CCC(Nc2ccc(CN3CCCCC(c4ccccc4)S3(=O)=O)cc2)CC1 (single isomer, unassigned) [Example 326, [4-(1,1-Dioxo-7-phenyl-[1,2]thiazepan-2-ylmethyl)-phenyl]-(1-methanesulfonyl-piperidin-4-yl)-amine] | 4
26 | CC(=O)N1CCN(c2ccc(CN3C(C)CCCC(c4ccccc4)S3(=O)=O)c(F)c2)CC1 (single isomer, unassigned) [Example 327, 1-{4-[3-Fluoro-4-(3-methyl-1,1-dioxo-7-phenyl-[1,2]thiazepan-2-ylmethyl)-phenyl]-piperazin-1-yl}-ethanone] | 3
27 | CC(=O)N1CCN(c2ccc(CN3C(C)CCCC(c4ccccc4)S3(=O)=O)c(F)c2)CC1 (single isomer, unassigned) [Example 328, 1-{4-[3-Fluoro-4-(3-methyl-1,1-dioxo-7-phenyl-[1,2]thiazepan-2-ylmethyl)-phenyl]-piperazin-1-yl}-ethanone] | 1090
28 | CC(=O)N1CCN(c2ccc(CN3C(C)CCCC(c4ccccc4)S3(=O)=O)c(F)c2)CC1 (single isomer, unassigned) [Example 329, 1-{4-[3-Fluoro-4-(3-methyl-1,1-dioxo-7-phenyl-[1,2]thiazepan-2-ylmethyl)-phenyl]-piperazin-1-yl}-ethanone] | 24
29 | CC(=O)N1CCN(c2ccc(CN3C(C)CCCC(c4ccccc4)S3(=O)=O)c(F)c2)CC1 (single isomer, unassigned) [Example 330, 1-{4-[3-Fluoro-4-(3-methyl-1,1-dioxo-7-phenyl-[1,2]thiazepan-2-ylmethyl)-phenyl]-piperazin-1-yl}-ethanone] | 37
30 | CC(=O)N1CCN(c2ccc(CN3CCC(C)CC(c4ccccc4)S3(=O)=O)c(F)c2)CC1 (single isomer, unassigned) [Example 331, 1-{4-[3-Fluoro-4-(5-methyl-1,1-dioxo-7-phenyl-[1,2]thiazepan-2-ylmethyl)-phenyl]-piperazin-1-yl}-ethanone] | 22
31 | CC(=O)N1CCN(c2ccc(CN3CCC(C)CC(c4ccccc4)S3(=O)=O)c(F)c2)CC1 (single isomer, unassigned) [Example 332, 1-{4-[3-Fluoro-4-(5-methyl-1,1-dioxo-7-phenyl-[1,2]thiazepan-2-ylmethyl)-phenyl]-piperazin-1-yl}-ethanone] | 71
